Experimental data taken from patent publication US20230295096A1, “PYRAZOLE CARBOXAMIDE COMPOUNDS FOR TREATMENT OF HBV” (ASSEMBLY BIOSCIENCES, INC., priority 2020, published 2023).
Like-named read-outs stand apart in the source and are kept apart here.

System: HBV
Assay: Viral load production from HepAD38 cells, qPCR of the HBV core sequence in supernatant
Format: cell-based
Conditions: Hepatitis B virus, HePAD38, 120 h, Table 1 ranges
Description: HepAD38 cells grown in a T-150 flask (Corning, cat#: 430825) with Growth Medium (DMEM/F12 (1:1) (Hyclone, cat#: SH30023.02), 1X Pen/Strep (Invitrogen, cat#: 15140-122), 10% FBS (Tissue Culture Biologics, cat#: 101), 250 µg/mL G418 (Alfa Aesar, cat#: J62671), 1 µg/mL Tetracycline (Teknova, cat#: T3320)) were detached with 0.25% trypsin-EDTA (Invitrogen, cat#: 25200-056). Tetracycline-free treatment medium (15 mL DMEM/F12 (1:1) 1× Pen/step, with 2% FBS, Tet-system approved (Clontech, cat#: 631106) were then added to mix, transferred into a 50 ml conical tube (Falcon, cat#: 21008-918,) and spun at 1300 rpm for 5 min. Pelleted cells were then re-suspended/washed with 50 mL of 1X DPBS (Invitrogen, cat#: 14190-136) 2 times and 50 mL treatment medium twice. HepAD38 cells were then re-suspended with 10 mL of treatment medium, syringed and counted. Wells of 96-well clear bottom TC plate (Corning, cat#: 3904,) were seeded at 50.000 cells/well in 180 µL of treatment medium, and 20 µL of either 10% DMSO (Sigma, cat#: D4540) as controls or a 10X solution of test compounds in 10% DMSO in treatment media was added for a final compound concentration starting at 10 µM, and plates were incubated in 5% CO2 incubator at 37° C. for 5 days.
Subsequently viral load production was assayed by quantitative PCR (qPCR) of the HBV core sequence. PCR reaction mixture containing forward primers HBV-f 5′-CTGTGCCTTGGGTGGCTTT-3′ (IDT DNA), Reverse primers HBV-r 5′-[…]-3′ (IDT DNA), Fluorescent TaqMan^tm Probes HBV-probe 5′-FAM/AGCTCCAAA/ZEN/[…]/3IABkFQ-3′ (IDT DNA), 10 µL/well of PerfeCTa® qPCR ToughMix® (Quanta Biosciences, Cat#: 95114-05 K), and 6 µL/well of DEPC water (Alfa Aesar, cat#: J62087) was prepared. Four µL of supernatant was added to 16 µL of the reaction mixture in a qPCR plate (Applied Biosytems, Cat#: 4309849), sealed with a film (Applied Biosystems, Cat#: 4311971), centrifuged for a few seconds, and subsequently run on an Applied Biosystems VIIA7. The PCR mixture was incubated at 45° C. for 5 min, then 95° C. for 10 min, followed by 40 cycles of 10 seconds at 95° C. and 20 seconds at 60° C. Viral load was quantified against known HBV DNA standards by using ViiA™ 7 Software. Viral load in the supernatant from wells with treated cells were compared against viral load in supernatant from DMSO control wells (≥ 3 per plate). Cell viability assay was performed with CellTiter-Glo Luminescent Cell Viability Assay (Promega, cat#: G7573) with modification. Mixed appropriate amount of CellTiter-Glo (CTG) 1X DPBS in a 1:1 ratio, added 100 uL of the mixture to each well followed completely removal of all supernatant in each well without touching cell surface. Incubated the plate at room temperature for 10 min on an orbital shaker, and then read the plate with a plate reader (TECAN M1000 or Envision). EC50 or CC50 values were calculated through curve-fitting of the four-parameter nonlinear-logistic-regression model (GraphPad Prism or Dotmatics). CC50 values were all >10 µM.

[1] = HepAD38 cells, 5 days, HBV DNA in supernatant by qPCR, read-out: Activity (viral load lowering EC50)

Compound | EC50 [1] [nM] | EC50 (read-out: Activity (viral load lowering EC50), HepAD38 cells, 5 days, HBV DNA in supernatant by qPCR) [nM]
Cn1nc(C2CC3CN(C(=O)OC4CC(F)(F)C4)CC3C2)c(C(=O)Nc2ccc(F)c(Cl)c2)c1N (centres unmarked) [Example 118, 3,3-Difluorocyclobutyl 5-(5-amino-4-((3-chloro-4-fluorophenyl)carbamoyl)-1-methyl-1H-pyrazol-3-yl)hexahydrocyclopenta[c]pyrrole-2(1H)-carboxylate] | 50 to 500 | –
Cn1ccnc1C1(O)CC2CC(c3nn(C)c(N)c3C(=O)Nc3ccc(F)c(Cl)c3)CC2C1 (centres unmarked) [Example 19, 5-Amino-N-(3-chloro-4-fluorophenyl)-3-(5-hydroxy-5-(1-methyl-1H-imidazol-2-yl)octahydropentalen-2-yl)-1-methyl-1H-pyrazole-4-carboxamide] | < 10 | –
Cn1nc(C2CC3CC(F)(CC(F)F)CC3C2)c(C(=O)Nc2ccc(F)c(Cl)c2)c1N (centres unmarked) [Example 29, 5-Amino-N-(3-chloro-4-fluorophenyl)-3-(5-(2,2-difluoroethyl)-5-fluorooctahydropentalen-2-yl)-1-methyl-1H-pyrazole-4-carboxamide] | 10 to 50 | –
Cn1nc(C2CC3CC(O)(c4cn(COP(=O)(O)OC(C)(C)C)nc4C(F)(F)F)CC3C2)c(C(=O)Nc2ccc(F)c(Cl)c2)c1N (centres unmarked) [Cpmpd. 6-2, (4-(5-(5-amino-4-((3-chloro-4-fluorophenyl)carbamoyl)-1-methyl-1H-pyrazol-3-yl)-2-hydroxyoctahydropentalen-2-yl)-3-(trifluoromethyl)-1H-pyrazol-1-yl)methyl tert-butyl hydrogen phosphate] | – | 10 to 50
Cn1nc(C2CC3CC(O)(c4ccccc4)CC3C2)c(C(=O)Nc2ccc(F)c(Cl)c2)c1N (centres unmarked) [Example 1, 5-Amino-N-(3-chloro-4-fluorophenyl)-3-(5-hydroxy-5-phenyl-octahydropentalen-2-yl)-1-methyl-1H-pyrazole-4-carboxamide] | < 10 | –
Cn1nc(C2CC3CC(CNC(=O)c4cncc(F)c4)CC3C2)c(C(=O)Nc2ccc(F)c(Cl)c2)c1N (centres unmarked) [Example 61, N-((5-(5-Amino-4-((3-chloro-4-fluorophenyl)carbamoyl)-1-methyl-1H-pyrazol-3-yl)octahydropentalen-2-yl)methyl)-5-fluoronicotinamide] | < 10 | –
Cn1nc(C(F)(F)F)cc1C1(O)CC2CC(c3nn(C)c(N)c3C(=O)Nc3ccc(F)c(Cl)c3)CC2C1 (centres unmarked) [Example 159] | 10 to 50 | –
CSc1nccc(C2(O)CC3CC(c4nn(C)c(N)c4C(=O)Nc4ccc(F)c(Cl)c4)CC3C2)n1 (centres unmarked) [Example 192] | 10 to 50 | –
Cn1nc(C2CC3CC(O)(c4c[nH]cn4)CC3C2)c(C(=O)Nc2ccc(F)c(Cl)c2)c1N (centres unmarked) [Example 27, 5-Amino-N-(3-chloro-4-fluorophenyl)-3-(5-hydroxy-5-(1H-imidazol-4-yl)octahydropentalen-2-yl)-1-methyl-1H-pyrazole-4-carboxamide] | 10 to 50 | –
Cn1nc(C2CC3CC(CNC(=O)CCC(C)(C)C)CC3C2)c(C(=O)Nc2ccc(F)c(Cl)c2)c1N (centres unmarked) [Example 56, 5-Amino-N-(3-chloro-4-fluorophenyl)-3-(5-((4,4-dimethylpentanamido)methyl)octahydropentalen-2-yl)-1-methyl-1H-pyrazole-4-carboxamide] | < 10 | –
Cn1nc(C(F)(F)F)cc1NCC1(O)CC2CC(c3nn(C)c(N)c3C(=O)Nc3ccc(F)c(Cl)c3)CC2C1 (single isomer, unassigned) [Example 203A] | < 10 | –
Cn1nc(C2CC3CC(O)(CS(=O)(=O)c4cccc(F)c4)CC3C2)c(C(=O)Nc2ccc(F)c(Cl)c2)c1N (centres unmarked) [Example 37, 5-Amino-N-(3-chloro-4-fluorophenyl)-3-(5-(((3-fluorophenyl)sulfonyl)methyl)-5-hydroxyoctahydropentalen-2-yl)-1-methyl-1H-pyrazole-4-carboxamide] | < 10 | –
Cn1nc(C2CC3CC(CNS(=O)(=O)C4CCOCC4)CC3C2)c(C(=O)Nc2ccc(F)c(Cl)c2)c1N (centres unmarked) [Example 96, 5-Amino-N-(3-chloro-4-fluorophenyl)-1-methyl-3-(5-(((tetrahydro-2H-pyran)-4-sulfonamido)methyl)octahydropentalen-2-yl)-1H-pyrazole-4-carboxamide] | < 10 | –
Cc1ccc(C2(O)CC3CC(c4nn(C)c(N)c4C(=O)Nc4ccc(F)c(C#N)c4)CC3C2)cc1 (centres unmarked) [Example 7, 5-Amino-N-(3-cyano-4-fluorophenyl)-3-(5-hydroxy-5-(p-tolyl)octahydropentalen-2-yl)-1-methyl-1H-pyrazole-4-carboxamide] | < 10 | –
Cc1cc(C2(O)CC3CC(c4nn(C)c(N)c4C(=O)Nc4ccc(F)c(Cl)c4)CC3C2)ccc1F (centres unmarked) [Example 13, 5-Amino-N-(3-chloro-4-fluorophenyl)-3-(5-(4-fluoro-3-methylphenyl)-5-hydroxyoctahydropentalen-2-yl)-1-methyl-1H-pyrazole-4-carboxamide] | 10 to 50 | –
Cn1nc(C2CC3CC(O)(c4ccc(F)cc4)CC3C2)c(C(=O)Nc2ccc(F)c(C#N)c2)c1N (centres unmarked) [Example 9, 5-Amino-N-(3-cyano-4-fluorophenyl)-3-(5-(4-fluorophenyl)-5-hydroxyoctahydropentalen-2-yl)-1-methyl-1H-pyrazole-4-carboxamide] | < 10 | –
Cn1nc(C2CC3CC(CNC(=O)C(C)(C)CO)CC3C2)c(C(=O)Nc2ccc(F)c(Cl)c2)c1N (centres unmarked) [Example 67, 5-Amino-N-(3-chloro-4-fluorophenyl)-3-(5-((3-hydroxy-2,2-dimethylpropanamido)methyl)octahydropentalen-2-yl)-1-methyl-1H-pyrazole-4-carboxamide] | < 10 | –
Cn1cc(C2(O)CC3CC(c4nn(C)c(N)c4C(=O)Nc4ccc(F)c(Cl)c4)CC3C2)nn1 (centres unmarked) [Example 23, 5-Amino-N-(3-chloro-4-fluorophenyl)-3-(5-hydroxy-5-(1-methyl-1H-1,2,3-triazol-4-yl)octahydropentalen-2-yl)-1-methyl-1H-pyrazole-4-carboxamide] | < 10 | –
Cn1nc(C2CC3CC(O)(c4c[nH]nn4)CC3C2)c(C(=O)Nc2ccc(F)c(Cl)c2)c1N (centres unmarked) [Example 170] | < 10 | –
Cn1nc(C2CC3CC(CNC(=O)c4cnc(C(F)(F)F)s4)CC3C2)c(C(=O)Nc2ccc(F)c(Cl)c2)c1N (centres unmarked) [Example 58, N-((5-(5-Amino-4-((3-chloro-4-fluorophenyl)carbamoyl)-1-methyl-1H-pyrazol-3-yl)octahydropentalen-2-yl)methyl)-2-(trifluoromethyl)thiazole-5-carboxamide] | 10 to 50 | –
Cn1nc(C2CC3CC(CNC(=O)COCCOCCNC(=O)OC(C)(C)C)CC3C2)c(C(=O)Nc2ccc(F)c(Cl)c2)c1N (centres unmarked) [Example 74, tert-Butyl (2-(2-(2-(((5-(5-amino-4-((3-chloro-4-fluorophenyl)carbamoyl)-1-methyl-1H-pyrazol-3-yl)octahydropentalen-2-yl)methyl)amino)-2-oxoethoxy)ethoxy)ethyl)carbamate] | < 10 | –
Cn1nc(C2CC3CN(C(=O)NCc4cccc(F)c4)CC3C2)c(C(=O)Nc2ccc(F)c(Cl)c2)c1N (centres unmarked) [Example 131, 5-(5-Amino-4-((3-chloro-4-fluorophenyl)carbamoyl)-1-methyl-1H-pyrazol-3-yl)-N-(3-fluorobenzyl)hexahydrocyclopenta[c]pyrrole-2(1H)-carboxamide] | 10 to 50 | –
Cn1nc(C2CC3CC(O)(c4ccc(Oc5ccccc5)cc4)CC3C2)c(C(=O)Nc2ccc(F)c(Cl)c2)c1N (centres unmarked) [Example 10, 5-Amino-N-(3-chloro-4-fluorophenyl)-3-(5-hydroxy-5-(4-phenoxyphenyl)octahydropentalen-2-yl)-1-methyl-1H-pyrazole-4-carboxamide] | < 10 | –
